Where a chain is given by its changes, count along the chain named. pEC50: −log10 of the molar value. Like-named read-outs stand apart in the source and are kept apart here.
How the values were obtained:
sGC enzyme = molecular target: T1, sGC enzyme (Homo sapiens, UniProt Q02108+Q02153); experiment: cGMP GloSensor cell-based assay, 384-well format; conditions: HEK293 cells expressing GloSensor 40F cGMP, 10 μM DETA-NONOate, normalized to 30 μM Compound Y
T1 construct: incorporated into these cells detect cGMP formed by the compounds stimulating the sGC enzyme; host or cells: HEK293 cells stably expressing GloSensor 40F cGMP biosensor
T1 sequence (Q02153 1-619): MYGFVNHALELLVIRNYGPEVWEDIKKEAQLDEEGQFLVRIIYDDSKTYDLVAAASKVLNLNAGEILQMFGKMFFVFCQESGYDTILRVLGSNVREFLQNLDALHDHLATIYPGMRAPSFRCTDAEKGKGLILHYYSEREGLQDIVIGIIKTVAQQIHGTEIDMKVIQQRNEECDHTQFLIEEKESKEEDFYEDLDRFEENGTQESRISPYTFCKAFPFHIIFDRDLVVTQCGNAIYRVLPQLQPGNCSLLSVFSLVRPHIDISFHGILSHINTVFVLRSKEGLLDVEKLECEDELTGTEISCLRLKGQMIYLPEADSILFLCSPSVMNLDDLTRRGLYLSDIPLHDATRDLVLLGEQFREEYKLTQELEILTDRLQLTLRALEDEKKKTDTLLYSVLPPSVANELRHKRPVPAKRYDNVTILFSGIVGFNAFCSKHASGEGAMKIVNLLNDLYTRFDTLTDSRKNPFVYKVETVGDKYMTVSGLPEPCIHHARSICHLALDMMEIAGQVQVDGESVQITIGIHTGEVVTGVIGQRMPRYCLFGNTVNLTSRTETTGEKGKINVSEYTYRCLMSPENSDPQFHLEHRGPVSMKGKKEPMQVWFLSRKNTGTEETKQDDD
T1 sequence (Q02108 1-690): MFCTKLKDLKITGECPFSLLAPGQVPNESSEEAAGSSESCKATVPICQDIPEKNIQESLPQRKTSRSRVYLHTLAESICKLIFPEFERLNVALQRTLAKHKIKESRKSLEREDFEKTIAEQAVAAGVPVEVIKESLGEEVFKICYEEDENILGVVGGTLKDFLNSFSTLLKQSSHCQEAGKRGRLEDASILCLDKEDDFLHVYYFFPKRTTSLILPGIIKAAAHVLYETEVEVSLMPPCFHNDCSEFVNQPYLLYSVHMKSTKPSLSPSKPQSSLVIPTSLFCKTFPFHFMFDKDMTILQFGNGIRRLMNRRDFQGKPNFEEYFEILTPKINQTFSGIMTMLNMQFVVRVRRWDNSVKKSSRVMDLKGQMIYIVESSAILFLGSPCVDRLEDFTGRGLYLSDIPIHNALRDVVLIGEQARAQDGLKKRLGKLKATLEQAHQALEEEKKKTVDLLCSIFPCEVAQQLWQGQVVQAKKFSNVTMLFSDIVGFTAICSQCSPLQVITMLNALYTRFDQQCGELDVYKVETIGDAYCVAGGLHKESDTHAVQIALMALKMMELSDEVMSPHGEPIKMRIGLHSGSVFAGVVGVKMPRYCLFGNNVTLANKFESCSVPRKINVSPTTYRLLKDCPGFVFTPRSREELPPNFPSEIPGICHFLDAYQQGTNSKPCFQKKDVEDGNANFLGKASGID
Procedure, shortened: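 HEK293 cells expressing GloSensor 40F cGMP luciferase biosensor, preloaded with 2 mM GloSensor substrate for 90 min at 25 °C. Endpoint luminescence read after 55 min compound incubation at room temperature.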

sGC = molecular target: T2, sGC (Rattus norvegicus, UniProt P20595); experiment: cGMP neuronal cell-based assay; conditions: rat primary hippocampal neurons, 30 μM DETA-NO, cGMP by LC-MS/MS, normalized to 10 μM Compound Y
T2 construct: Rat primary neurons were isolated from fetuses of 18-day pregnant Sprague-Dawley females; endogenous in cells; host or cells: Primary rat hippocampal neurons (E18 Sprague-Dawley fetuses)
T2 sequence (P20595 1-619): T1 sequence (Q02153 1-619) with N171S, E205D, N247K, T299A, K615N, D618E, D619N
Method: Rat primary neurons were isolated from fetuses of 18-day pregnant Sprague-Dawley females. The fetuses were collected in Hanks' balanced salt solution (HBSS) and brains were rapidly removed. The cerebral hippocampi were isolated and mechanically fragmented. Further tissue digestion was performed with 0.25% (wt/vol) trypsin solution in HBSS without Ca2+ and Mg2+ for 15 min at 37° C. After trypsination, cells were washed and resuspended in neurobasal medium supplemented with 0.5 mM L-glutamine, 12.5 uM glutamic acid, 2% B-27 and 100U/mL penicillin, and 100 μg/mL streptomycin. Cells were plated at a density of 4×10^4 cells/well in a poly-D-lysine coated 384-well flat clear-bottom plate (Corning Cat No 354662). Cells were incubated 6-7 days at 37° C. in a humidified chamber with 5% CO2. Media was removed and cells were washed 1× with HBSS containing Ca2+ and Mg2+, and replaced with 40 uL HBSS containing 0.5 mM IBMX, and incubated for 15 minutes at 37° C. 10 uL of a 5× stock of test compounds with diethylenetriamine NONOate (DETA-NO) was added. Final concentration of DETA-NO was 30 μM. Cells were incubated for 20 min at 37° C. Medium was removed, 50 uL of ice-cold 10% acetic acid was added, and incubated for 60 minutes at 4° C. Following centrifugation at 4° C. for 5 minutes at 1000×g to pellet cell debris, the supernatant was aspirated to a clean plate and the samples were analyzed for cGMP content. cGMP concentrations were determined from each sample using LC-MS/MS.
Data were normalized to a high control using the following equation: 100*(Sample−Low Control)/(High Control−Low Control), where the low control is the average of 15 samples treated with 1% DMSO, and the high control is the average of 15 samples treated with 10 μM of the known sGC stimulator Compound Y (depicted in Example 2). Data were fit using a 4-parameter fit (log(agonist) vs. response—variable slope) using GraphPad Prism Software v.5. n=2 for all compounds. The Absolute EC50 was interpolated from the curve fit and is defined as the concentration at which a given compound elicits 50% of the high control response after data normalization. Compounds failing to elicit a minimum response of 50% are reported as >30 μM. For compounds run in duplicate or n higher than 2, the result herein given is the geometric mean of the several results obtained.

[1] = compounds in Table IA, read-out: Glo-sensor AbsEC50
[2] = compounds in Table IA, read-out: sGC-neuron Abs EC50
[3] = compounds in Table IB, read-out: Glo-sensor Abs EC50
[4] = compounds in Table IB, read-out: sGC-Neuron Abs EC50

Row | Compound | pEC50 (sGC enzyme; [1]) | pEC50 (sGC; [2]) | pEC50 (sGC enzyme; [3]) | pEC50 (sGC; [4])
1 | FC(F)(F)c1n[nH]c(-c2nc(CCC(F)(F)C(F)(F)F)c3ccccn23)n1 [Compound I-9] |  |  | 6.00 to 7.00 | 6.00 to 7.00
2 | FC(F)(F)c1n[nH]c(-c2nc(Cc3cncnc3)c3cc(Cl)ccn23)n1 [Compound I-6, 7-Chloro-1-(pyrimidin-5-ylmethyl)-3-(3-(trifluoromethyl)-1H-1,2,4-triazol-5-yl)imidazo[1,5-a]pyridine] |  |  | > 7.00 | ≥ 7.00
3 | Fc1cccc(Cc2nn(-c3nc(C(F)F)n[nH]3)c3cccnc23)c1F [Compound I-127, 3-(2,3-Difluorobenzyl)-1-(3-(difluoromethyl)-1H-1,2,4-triazol-5-yl)-1H-pyrazolo[4,3-b]pyridine] | 6.00 to 7.00 | ≥ 7.00 |  | 
4 | Fc1ccc(F)c(Cc2nn(-c3nc(C(F)F)n[nH]3)c3cccnc23)c1 [Compound I-131, 3-(2,5-Difluorobenzyl)-1-(3-(difluoromethyl)-1H-1,2,4-triazol-5-yl)-1H-pyrazolo[4,3-b]pyridine] | > 7.00 | ≥ 7.00 |  | 

Further lines, results first:

Row | pEC50 (sGC enzyme; [1]) | pEC50 (sGC; [2]) | pEC50 (sGC enzyme; [3]) | pEC50 (sGC; [4]) | Compound
5 | > 7.00 | ≥ 7.00 |  |  | Fc1cnc2c(c1)c(-c1nc(C(F)(F)F)n[nH]1)nn2Cc1ccccc1F [Compound I-8, 5-Fluoro-1-(2-fluorobenzyl)-3-(3-(trifluoromethyl)-1H-1,2,4-triazol-5-yl)-1H-pyrazolo[3,4-b]pyridine]
6 | > 7.00 | ≥ 7.00 |  |  | Fc1ccc(F)c(Cc2nn(-c3nc(C(F)(F)F)n[nH]3)c3cccnc23)c1 [Compound I-130, 3-(2,5-Difluorobenzyl)-1-(3-(trifluoromethyl)-1H-1,2,4-triazol-5-yl)-1H-pyrazolo[4,3-b]pyridine]

Source: patent US12435080B2, “sGC stimulators” (Tisento Therapeutics Inc., priority 2016, dated 2025)
